The NIST ThermoML archive (doi:10.1016/j.jct.2004.07.008)
± gives the expanded uncertainty stated by the source.

What was measured:
[1] = 100 kPa, Liquid
[2] = xn = mol fraction of the nth substance listed; settings: 278.15 K; 100 kPa; Liquid; x2 = 0

Compound	mass density ([1]; 278.15 K)	mass density ([1]; 288.15 K)	mass density ([1]; 293.15 K)	mass density ([1]; 298.15 K)	mass density ([1]; 308.15 K)	mass density [2]
CCNCC [diethylamine]	719.94 ± 1.2 kg/m3	709.52 ± 1.2 kg/m3	704.59 ± 1.2 kg/m3	698.97 ± 1.2 kg/m3	688.29 ± 1.3 kg/m3	–
O [water] + CCNCC	–	–	–	–	–	999.964 ± 0.25 kg/m3
